Reference: patent publication US12173018B2, “Penicillin-binding protein inhibitors” (priority 2018, dated 2024)
Converted amounts (≈) assume the structure as drawn. Like-named read-outs stand apart in the source and are kept apart here.

Columns and labels:
K. pneumoniae 848844 = assay: microbe, parasite or virus in culture; assay type: cell-based, Klebsiella pneumoniae; settings: Klebsiella pneumoniae; K. pneumoniae 848844 producing SHV-11 and KPC-2; read-out: MIC K. pneumoniae 848844
In short: (§1)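 Visual MIC readout after 16-20 h at 37° C in CLSI-format microdilution. Compounds tested as 2-fold series against a 5×10^5 CFU/mL inoculum in cation-supplemented Mueller-Hinton broth.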

N. gonorrhoeae FA19 = assay: Liquid broth MIC, N. gonorrhoeae FA19; assay type: cell-based; settings: Neisseria gonorrhoeae; N. gonorrhoeae FA19, liquid broth; read-out: Minimum Inhibitory Concentration, N. gonorrhoeae FA19
In short: (§2)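 In liquid broth, wild-type reference gonococci at 5×10^5 CFU/mL faced twofold compound dilutions for 40-42 hours (36° C, 5% CO2). The MIC was the lowest concentration with no growth seen by eye.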

E. coli AG100 = assay: Broth microdilution MIC, E. coli AG100 (wild-type parent); assay type: cell-based; settings: Escherichia coli; wild-type parent E. coli AG100, broth microdilution; read-out: MIC E. coli AG100
In short: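 Broth microdilution in cation-supplemented Mueller-Hinton broth, 2-fold serial compound dilutions, inoculum 5×10^5 CFU/mL from 3-5 h log culture.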

[1] = test system: N. gonorrhoeae ATCC 49226; assay: Liquid broth MIC, N. gonorrhoeae ATCC 49226; assay type: cell-based; settings: Neisseria gonorrhoeae, ATCC49226; N. gonorrhoeae ATCC 49226, liquid broth; read-out: Minimum Inhibitory Concentration, N. gonorrhoeae ATCC 49226
In short: as §2

E. coli ATCC 25922 = assay: Broth microdilution MIC, E. coli ATCC 25922; assay type: cell-based; settings: Escherichia coli
In short: as §1

N. gonorrhoeae WHO F = assay: Liquid broth MIC, N. gonorrhoeae WHO F; assay type: cell-based; settings: Neisseria gonorrhoeae; N. gonorrhoeae WHO F, liquid broth; read-out: Minimum Inhibitory Concentration, N. gonorrhoeae WHO F
In short: as §2

E. coli 901C = assay: microbe, parasite or virus in culture; assay type: cell-based; settings: Escherichia coli; hyper-permeable E. coli 901C, broth microdilution; read-out: MIC E. coli 901C
In short: as §1

K. pneumoniae SI-117 = assay: microbe, parasite or virus in culture; assay type: cell-based; settings: Klebsiella pneumoniae, SI117, read-out: MIC K. pneumoniae SI-117
In short: as §1

E. coli D22 = assay: microbe, parasite or virus in culture; assay type: cell-based; settings: Escherichia coli; hyper-permeable E. coli D22, broth microdilution; read-out: MIC E. coli D22
In short: as §1

E. coli AG100A = assay: microbe, parasite or virus in culture; assay type: cell-based; settings: Escherichia coli, read-out: MIC E. coli AG100A
In short: as §1

K. pneumoniae UMM = assay: microbe, parasite or virus in culture; assay type: cell-based; settings: Klebsiella pneumoniae; K. pneumoniae UMM producing SHV-5 and KPC-2; read-out: MIC K. pneumoniae UMM
In short: as §1

[2] = ATCC25922, E. coli ATCC 25922, broth microdilution, read-out: MIC E. coli 25922

| SMILES | MIC (K. pneumoniae 848844) | MIC (N. gonorrhoeae FA19) | MIC (E. coli AG100) | MIC [1] | MIC (E. coli ATCC 25922; [2]) | MIC (N. gonorrhoeae WHO F) | MIC (E. coli 901C) | MIC (K. pneumoniae SI-117) | MIC (E. coli D22) | MIC (E. coli AG100A) | MIC (K. pneumoniae UMM) | MIC (E. coli ATCC 25922; ATCC25922, read-out: MIC E. coli 25922) |
| --- | --- | --- | --- | --- | --- | --- | --- | --- | --- | --- | --- | --- |
| O=C(O)c1c(F)ccc2c1OB(O)[C@@H](NC(=O)C(NC(=O)N1CCN(CCF)C(=O)C1=O)c1ncc(O)cc1F)C2 (stereo partly drawn) [Example 183, (3R)-7-fluoro-3-(2-(3-fluoro-5-hydroxypyridin-2-yl)-2-(4-(2-fluoroethyl)-2,3-dioxopiperazine-1-carboxamido)acetamido)-2-hydroxy-3,4-dihydro-2H-benzo[e][1,2]oxaborinine-8-carboxylic acid] | > 128 µg/mL | 1 to 2 µg/mL (≈ 1.73 to 3.45 µM) | 8 to 16 µg/mL | 0.25 to 0.5 µg/mL (≈ 0.432 to 0.863 µM) | 32 to 64 µg/mL | < 0.125 µg/mL | < 0.25 µg/mL | 32 to 64 µg/mL | 2 to 4 µg/mL | 2 to 4 µg/mL | 8 to 16 µg/mL |  |
| CCN1CCN(C(=O)N[C@H](C(=O)N[C@H]2Cc3ccc(F)c(C(=O)O)c3OB2O)c2ccc(O)c(O)c2Cl)C(=O)C1=O [Example 188, (R)-3-((S)-2-(2-chloro-3,4-dihydroxyphenyl)-2-(4-ethyl-2,3-dioxopiperazine-1-carboxamido)acetamido)-7-fluoro-2-hydroxy-3,4-dihydro-2H-benzo[e][1,2]oxaborinine-8-carboxylic acid] | 8 to 16 µg/mL | 16 to 32 µg/mL (≈ 27 to 54 µM) | 8 to 16 µg/mL | 16 to 32 µg/mL (≈ 27 to 54 µM) | 32 to 64 µg/mL | 4 to 8 µg/mL (≈ 6.75 to 13.5 µM) | 2 to 4 µg/mL | 32 to 64 µg/mL | 8 to 16 µg/mL | 8 to 16 µg/mL | > 128 µg/mL |  |
| CCN1CCN(C(=O)N[C@@H](C(=O)N[C@H]2Cc3ccc(F)c(C(=O)O)c3OB2O)c2ccc(O)c(O)c2Cl)C(=O)C1=O [Example 189, (R)-3-((R)-2-(2-chloro-3,4-dihydroxyphenyl)-2-(4-ethyl-2,3-dioxopiperazine-1-carboxamido)acetamido)-7-fluoro-2-hydroxy-3,4-dihydro-2H-benzo[e][1,2]oxaborinine-8-carboxylic acid] | 2 to 4 µg/mL | 1 to 2 µg/mL (≈ 1.69 to 3.37 µM) | 2 to 4 µg/mL | 1 to 2 µg/mL (≈ 1.69 to 3.37 µM) | 2 to 4 µg/mL | 0.25 to 0.5 µg/mL (≈ 0.422 to 0.844 µM) | 0.5 to 1 µg/mL | 0.5 to 1 µg/mL | 0.5 to 1 µg/mL | 0.5 to 1 µg/mL | 0.5 to 1 µg/mL |  |
| CCN1CCN(C(=O)N[C@@H](C(=O)N[C@H]2Cc3cccc(C(=O)O)c3OB2O)c2ccc(O)c(O)c2Cl)C(=O)C1=O [Example 190, (R)-3-((R)-2-(2-chloro-3,4-dihydroxyphenyl)-2-(4-ethyl-2,3-dioxopiperazine-1-carboxamido)acetamido)-2-hydroxy-3,4-dihydro-2H-benzo[e][1,2]oxaborinine-8-carboxylic acid] | 0.5 to 1 µg/mL | 4 to 8 µg/mL (≈ 6.96 to 13.9 µM) | 0.5 to 1 µg/mL | 1 to 2 µg/mL (≈ 1.74 to 3.48 µM) | 2 to 4 µg/mL | 0.25 to 0.5 µg/mL (≈ 0.435 to 0.87 µM) | < 0.25 µg/mL | 2 to 4 µg/mL | 0.5 to 1 µg/mL | < 0.25 µg/mL | 0.5 to 1 µg/mL |  |
| CCN1C[C@@H](C)N(C(=O)NC(C(=O)N[C@H]2Cc3cccc(C(=O)O)c3OB2O)c2ncc(O)cc2F)C(=O)C1=O (stereo partly drawn) [Example 191, (3R)-3-(2-((R)-4-ethyl-6-methyl-2,3-dioxopiperazine-1-carboxamido)-2-(3-fluoro-5-hydroxypyridin-2-yl)acetamido)-2-hydroxy-3,4-dihydro-2H-benzo[e][1,2]oxaborinine-8-carboxylic acid] | > 128 µg/mL | 16 to 32 µg/mL (≈ 28.7 to 57.4 µM) | > 128 µg/mL | > 64 µg/mL | > 128 µg/mL | 1 to 2 µg/mL (≈ 1.79 to 3.59 µM) | 0.5 to 1 µg/mL | > 128 µg/mL | 8 to 16 µg/mL | 8 to 16 µg/mL | > 128 µg/mL |  |
| CCN1CCN(C(=O)NC(C(=O)N[C@H]2Cc3ccc(F)c(C(=O)O)c3OB2O)c2ccc(O)c(O)c2Cl)C(O)C1=O (stereo partly drawn) [Example 194, (3R)-3-(2-(2-chloro-3,4-dihydroxyphenyl)-2-(4-ethyl-2-hydroxy-3-oxopiperazine-1-carboxamido)acetamido)-7-fluoro-2-hydroxy-3,4-dihydro-2H-benzo[e][1,2]oxaborinine-8-carboxylic acid] | 8 to 16 µg/mL | 4 to 8 µg/mL (≈ 6.73 to 13.5 µM) | 8 to 16 µg/mL | 16 to 32 µg/mL (≈ 26.9 to 53.8 µM) |  | 4 to 8 µg/mL (≈ 6.73 to 13.5 µM) | 8 to 16 µg/mL | 8 to 16 µg/mL | 8 to 16 µg/mL | 8 to 16 µg/mL | 8 to 16 µg/mL | 32 to 64 µg/mL |
| NS(=O)(=O)c1ccc(C(NC(=O)N2CCN(CCF)C(=O)C2=O)C(=O)N[C@H]2Cc3cccc(C(=O)O)c3OB2O)c(F)c1 (stereo partly drawn) [Example 204, (3R)-3-(2-(2-fluoro-4-sulfamoylphenyl)-2-(4-(2-fluoroethyl)-2,3-dioxopiperazine-1-carboxamido)acetamido)-2-hydroxy-3,4-dihydro-2H-benzo[e][1,2]oxaborinine-8-carboxylic acid] | > 128 µg/mL | 1 to 2 µg/mL (≈ 1.6 to 3.21 µM) | 32 to 64 µg/mL | 1 to 2 µg/mL (≈ 1.6 to 3.21 µM) | 32 to 64 µg/mL | 0.25 to 0.5 µg/mL (≈ 0.401 to 0.802 µM) | < 0.25 µg/mL | > 128 µg/mL | 2 to 4 µg/mL | 2 to 4 µg/mL | 32 to 64 µg/mL |  |
| CCN1CCN(C(=O)NC(C(=O)N[C@H]2Cc3cccc(C(=O)O)c3OB2O)c2nc(N)sc2F)C(=O)C1=O (stereo partly drawn) [Example 205, (3R)-3-(2-(2-amino-5-fluorothiazol-4-yl)-2-(4-ethyl-2,3-dioxopiperazine-1-carboxamido)acetamido)-2-hydroxy-3,4-dihydro-2H-benzo[e][1,2]oxaborinine-8-carboxylic acid] | 32 to 64 µg/mL | < 0.125 µg/mL | 8 to 16 µg/mL | < 0.125 µg/mL | 2 to 4 µg/mL | < 0.125 µg/mL | < 0.25 µg/mL | 32 to 64 µg/mL | 0.5 to 1 µg/mL | 0.5 to 1 µg/mL | > 128 µg/mL |  |
| CCN1C[C@H](C)N(C(=O)NC(C(=O)N[C@H]2Cc3ccc(F)c(C(=O)O)c3OB2O)c2ccc(O)c(O)c2Cl)C(=O)C1=O (stereo partly drawn) [Example 206, (3R)-3-(2-(2-chloro-3,4-dihydroxyphenyl)-2-((S)-4-ethyl-6-methyl-2,3-dioxopiperazine-1-carboxamido)acetamido)-7-fluoro-2-hydroxy-3,4-dihydro-2H-benzo[e][1,2]oxaborinine-8-carboxylic acid] | 2 to 4 µg/mL | 4 to 8 µg/mL (≈ 6.59 to 13.2 µM) | 0.5 to 1 µg/mL | 4 to 8 µg/mL (≈ 6.59 to 13.2 µM) | 2 to 4 µg/mL | 0.25 to 0.5 µg/mL (≈ 0.412 to 0.824 µM) | < 0.25 µg/mL | 2 to 4 µg/mL | 0.5 to 1 µg/mL | < 0.25 µg/mL | 2 to 4 µg/mL |  |
| CCN1C[C@H](C)N(C(=O)NC(C(=O)N[C@H]2Cc3ccc(F)c(C(=O)O)c3OB2O)c2ncc(O)cc2F)C(=O)C1=O (stereo partly drawn) [Example 208, (3R)-3-(2-((S)-4-ethyl-6-methyl-2,3-dioxopiperazine-1-carboxamido)-2-(3-fluoro-5-hydroxypyridin-2-yl)acetamido)-7-fluoro-2-hydroxy-3,4-dihydro-2H-benzo[e][1,2]oxaborinine-8-carboxylic acid] | 32 to 64 µg/mL | 4 to 8 µg/mL (≈ 6.95 to 13.9 µM) | 8 to 16 µg/mL | 4 to 8 µg/mL (≈ 6.95 to 13.9 µM) | 8 to 16 µg/mL | < 0.125 µg/mL | < 0.25 µg/mL | 32 to 64 µg/mL | 2 to 4 µg/mL | 2 to 4 µg/mL | 8 to 16 µg/mL |  |
